Values after ≈ are worked out from the molar mass of the structure shown. Like-named read-outs stand apart in the source and are kept apart here. Blank lines part the entries; values can stand above or below the molecule they belong to.
Experiments:
[1] = Prodrug-drug conversion in full blood; assay type: in vitro ADME; conditions: fresh heparinised rat blood, 37° C., after 120 min
Description: 495 μL fresh heparinised rat blood are spiked with 5 μL of a 1 mg/mL DMSO solution of the analyte (prodrug) at 37° C. After t=0, 5, 15, 30, 60 and 120 min, a blood sample is taken and precipitated. Therefore to 50 μL blood sample or spiked blood sample 150 μL acetonitrile containing an internal standard are added. Samples are centrifuged and 20 μl of the supernatant are injected into the HPLC system for determination of compound concentration (prodrug and parent drug) by LC-MS/MS analysis.
For calibration, a standard curve is prepared with a compound concentration range from 10 to 10000 ng/mL in fresh heparine rat blood. Therefore the blood is spiked (2 μL DMSO solution in 198 μL fresh rat blood) and precipitated like unknown samples.

[2] = In vivo pharmacokinetic studies, intravenous administration, Vena saphena screening method; set-up: species or system male NMRI mice; conditions: mice, i.v. administration of the prodrug
Description: The compounds are evaluated in vivo after intravenous administration to male NMRI mice using the Vena saphena screening method.
A dose of 1 mg/kg of the compound is administered i.v. as a bolus (5 mL/kg). Serial blood samples (40 μL) are drawn after puncture of the saphenous vein and collected in a sodium heparin coated capillary tube from two mice per time point at pre-dose, 5 min, 15 min, 30 min, 45 min, 1 h, 2 h, 4 h, 6 h, 8 h and 24 h after intravenous administration.
Blood samples are weighed and the blood quenched in 300 μl stop solution consisting of acetonitrile/water (80:20) and an internal standard.
Blood concentrations of the compound (prodrug) and its parent drug are determined using LC-MS/MS analysis with a limit of quantification of 4 to 40 ng/mL.
Mean arithmetic plasma/blood concentrations are calculated using BLQ (below limit of quantitation)−value of zero if necessary. • Mean AUCinfIV [ng*h/mL] The area under the blood concentration-time curve for a mean normalized (1 mg/kg) iv application from time zero to the last sampling time with a concentration above the limit of quantification. • Mean AUCinfIV is calculated according to the linear trapezoidal rule.
In a study mice are intravenously treated with prodrugs according to the invention, followed by determination of the blood concentration of the drug. […]

[3] = Determination of kinetic solubility; assay type: physicochemical; conditions: aqueous buffer, kinetic from dmso stock, 2.5% DMSO, room temperature, read-out: C eff
Description: Compounds, provided as 20 mM or 10 mM stock solutions in 100% DMSO, are diluted 1:40 in aqueous buffer to a concentration of 0.5 mM or 0.25 mM, respectively, with 2.5% residual DMSO. The pH 6.5 buffer consists of 0.05 M 3-(N-morpholino)-2-hydroxypropanesulfonic acid (MOPSO) adjusted to the target pH with NaOH. Buffers at pH 5 and pH 3 are prepared from commercially available concentrates (Titrisol®, Merck). The samples are then incubated at room temperature for 6 hours with gentle shaking followed by vacuum filtration through a MultiScreen DV plate (Durapore hydrophilic PVDF membrane, 0.65 μm pore size, Millipore). The filtrates are adjusted to 20% acetonitrile and analyzed by UV spectroscopy to obtain the absorption maximum and the corresponding wavelength. The concentration of compound in the filtrate is calculated based on the linear part of a standard curve constructed using 3 to 5 known concentrations of each sample in aqueous buffer supplemented with 20% acetonitrile.

[4] = Pharmacokinetic studies in xenografted mice (plasma and tumor); assay type: in vivo, CD-1 Nu/Nu female mice; conditions: female, CD-1 Nu/Nu, mouse, iv
Description: CD-1 Nu/Nu female mice implanted with the human colon carcinoma SW480 cell line are treated with either the “Parent Drug”, i.e. 3-(4-{1-[2-(4-amino-phenyl)-2-oxo-ethyl]-1H-benzoimidazol-2-yl}-furazan-3-ylamino)-propionitrile, or “Example 1” i.e. S-2,6-diamino-hexanoic acid [4-(2-{2-[4-(2-cyano-ethylamino)-furazan-3-yl]-benzoimidazol-1-yl}-acetyl)-phenyl]-amide hydrochloride salt, when the tumor size reached approximately 150 mm^3+/−10%. Mice (33 per compound) are treated i.v. […]
After the 4th application (4th week), three mice/sampling point from the “Parent Drug” and “Example 1” groups are culled before and 5 min, 15 min, 30 min, 45 min, 1 h, 1.5 h, 2 h, 4 h, 6 h and 24 h post-administration. Blood is collected by cardiac puncture into K3EDTA tubes kept on ice until centrifugation at 4° C. Plasma is stored at −20° C. At necropsy, tumors are removed and weighed. Tumors are stored at −20° C. Plasma and tumor samples are analyzed by LC-MS/MS. Pharmacokinetic parameters are calculated using WinNonLin 5.2. All results for “Example 1” represent the free base.

[5] = test system: SW480 colorectal cancer xenografts; assay: In vivo efficacy studies, SW480 xenografts; set-up: species or system athymic nude mice; conditions: for final T/C (ratio of tumor volume in the treatment group vs. the control group) at day 24: once weekly i.v. for 24 days, prodrug 21 mg/kg, parent drug 8 mg/kg; for final T/C (day 24): three times per week (d1/4/7) i.v. for 24 days, prodrug 7.1 mg/kg
Excerpt: (§1) Mice bearing SW480 colorectal cancer xenografts are used to test and compare the anti-cancer efficacy and tolerability of intravenous (i.v.) application of the prodrug according to Example 1 (S-2,6-diamino-hexanoic acid [4-(2-{2-[4-(2-cyano-ethylamino)-furazan-3-yl]-benzoimidazol-1-yl}-acetyl)-phenyl]-amide hydrochloride salt) and the corresponding parent drug” (3-(4-{1-[2-(4-amino-phenyl)-2-oxo-ethyl]-1H-benzoimidazol-2-yl}-furazan-3-ylamino)-propionitrile) at the maximum tolerated dose level (MTD). Prior to the efficacy experiment, a determination of the MTD of each compound administered once weekly is performed in non-tumor-bearing nude mice of the same strain. Administration of 24.5 mg/kg prodrug and 10 mg/kg parent drug, given as an i.v. bolus once weekly, results in body weight losses >10% in a few animals in both groups. The MTDs in tumor-bearing mice are, therefore, determined to be 15-20% lower, resulting in doses of 21 mg/kg prodrug and 8 mg/kg parent drug. Human colorectal carcinoma cells (SW480) are injected subcutaneously (4×10^6 cells) into the back of 4-8-week old athymic nude mice. Tumor volumes are determined from calliper measurements of tumor length (L) and width (1) according to the formula (L×l^2)/2. Tumors are allowed to expand to a volume of 200 mm^3 (±10%) before treatment start. The prodrug and parent drug are administered i.v. for 24 days, either once per week at 21 mg/kg and 8 mg/kg, respectively, or three times a week (d1/4/7) at 7.1 mg/kg and 2.7 mg/kg, respectively (both schedules represent the same total weekly dose). Tumor volume and body weight are monitored daily.
(§2) FIG. 1 provides a graphical representation of the changes in mean tumor volume during the time of treatment when using the administration schedule, wherein prodrug and parent drug are given once weekly for 24 days at doses of 21 mg/kg and 8 mg/kg, respectively, with appropriate vehicle controls (5 ml/kg) administered with the same schedule. Data points represent mean values+/−SEM (n=7-8 animals, each animal was engrafted with one tumor).
as §2, with “2” for “1”, “three times per week (d1/4/7)” for “once weekly”, “7.1” for “21”, “2.7 mg/kg in 5 ml/kg,” for “8 mg/kg,”, “points again” for “points”

[6] = Determination of the maximum tolerated dose (MTD), once weekly i.v.; conditions: athymic nude, mouse, in vivo, iv
Excerpt: as §1, with “The prodrug and parent drug are administered i.v. for 24 days, either once per week at 21 mg/kg and 8 mg/kg, respectively, or three times a week (d1/4/7) at 7.1 mg/kg and 2.7 mg/kg, respectively (both schedules represent the same total weekly dose).” left out

Structure (SMILES): NCC(=O)Nc1ccc(C(=O)Cn2c(-c3nonc3N)nc3ccccc32)cc1 [Example 12, 2-Amino-N-(4-{2-[2-(4-amino-furazan-3-yl)-benzoimidazol-1-yl]-acetyl}-phenyl)-acetamide]
conversion of prodrug into its parent drug [1]: completely converted

Structure (SMILES): CN(C)/C=N/c1ccc(C(=O)Cn2c(-c3nonc3NCCC#N)nc3ccccc32)cc1 [Example 14, N′-[4-(2-{2-[4-(2-Cyano-ethylamino)-furazan-3-yl]-benzoimidazol-1-yl}-acetyl)-phenyl]-N,N-dimethyl-formamidine]
levels of the parent drug after intravenous administration [2]: no significant levels

Structure (SMILES): N#CCCNc1nonc1-c1nc2ccccc2n1CC(=O)c1ccc(N)cc1 [Parent Drug, 3-(4-{1-[2-(4-Amino-phenyl)-2-oxo-ethyl]-1H-benzoimidazol-2-yl}-furazan-3-ylamino)-propionitrile, reference compound]
solubility kinetic at 6 h ([3]; pH 3.0 buffer): < 10 µM | solubility kinetic at 6 h ([3]; pH 5.0 buffer): < 10 µM | solubility kinetic at 6 h ([3]; pH 6.5 buffer): < 10 µM | Cmax ([4]; plasma, after i.v. 8 mg/kg Parent Drug, 4th application, xenografted mice, read-out: Cmax of Parent Drug in plasma): 11000 ng/mL | AUC(0-t) ([4]; plasma, after i.v. 8 mg/kg Parent Drug, xenografted mice, read-out: AUClast of Parent Drug in plasma): 44800 ng·h/mL | half-life ([4]; plasma, after i.v. 8 mg/kg Parent Drug, xenografted mice, read-out: T1/2 of Parent Drug in plasma (converted)): 3.2 h | Cmax ([4]; tumor, after i.v. 8 mg/kg Parent Drug, 4th application, xenografted mice, read-out: Cmax of Parent Drug in tumors): 3210 ng/mL | AUC(0-t) ([4]; tumor, after i.v. 8 mg/kg Parent Drug, xenografted mice, read-out: AUClast of Parent Drug in tumors): 45500 ng·h/mL | half-life ([4]; tumor, after i.v. 8 mg/kg Parent Drug, xenografted mice, read-out: T1/2 of Parent Drug in tumors (converted)): 5.4 h | final T/C (ratio of tumor volume in the treatment group vs. the control group) at day 24 [5]: 45% | final T/C (day 24) ([5]; parent drug 2.7 mg/kg): 54% | death of animals during treatment ([5]; three times per week i.v., parent drug 2.7 mg/kg): one animal in the parent drug-group (three times per week treatment) died at day 10 | MTD ([6]; i.v. once weekly, set 15-20% lower than dose causing body weight loss, read-out: MTD in tumor-bearing mice): 8 mg/kg

Structure (SMILES): NCC(=O)Nc1nonc1-c1nc2ccccc2n1CC(=O)c1ccc(N)cc1 [Example 13, 2-Amino-N-(4-{1-[2-(4-amino-phenyl)-2-oxo-ethyl]-1H-benzoimidazol-2-yl}-furazan-3-yl)-acetamide]
conversion of prodrug into its parent drug [1]: approximately 74%

Structure (SMILES): N#CCCNc1nonc1-c1nc2ccccc2n1CC(=O)c1ccc(NC(=O)[C@@H](N)CCCCN)cc1 [Example 1, S-2,6-diamino-hexanoic acid [4-(2-{2-[4-(2-cyano-ethylamino)-furazan-3-yl]-benzoimidazol-1-yl}-acetyl)-phenyl]-amide]
solubility kinetic at 6 h ([3]; pH 3.0 buffer): > 200 µM | solubility kinetic at 6 h ([3]; pH 5.0 buffer): > 200 µM | solubility kinetic at 6 h ([3]; pH 6.5 buffer): 190 µM (≈ 98 µg/mL) | AUC(0-t) ([4]; plasma, analyte Example 1 (free base), after i.v. 19.6 mg Example 1, xenografted mice, read-out: AUClast of Example 1 in plasma): 21100 ng·h/mL | Cmax ([4]; plasma, analyte Example 1 (free base), after i.v. 19.6 mg Example 1, xenografted mice, read-out: Cmax of Example 1 in plasma): 81900 ng/mL | half-life ([4]; plasma, analyte Example 1 (free base), after i.v. 19.6 mg Example 1, xenografted mice, read-out: T1/2 of Example 1 in plasma (converted)): 5.5 h | AUC(0-t) ([4]; tumor, analyte Example 1 (free base), after i.v. 19.6 mg Example 1, xenografted mice, read-out: AUClast of Example 1 in tumors): 29300 ng·h/mL | Cmax ([4]; tumor, analyte Example 1 (free base), after i.v. 19.6 mg Example 1, xenografted mice, read-out: Cmax of Example 1 in tumors): 6010 ng/mL | half-life ([4]; tumor, analyte Example 1 (free base), after i.v. 19.6 mg Example 1, xenografted mice, read-out: T1/2 of Example 1 in tumors (converted)): 9.6 h | final T/C (ratio of tumor volume in the treatment group vs. the control group) at day 24 [5]: 34% | final T/C (day 24) ([5]; parent drug 2.7 mg/kg): 26% | MTD [6]: 21 mg/kg

Results, then the molecule that gave them:

levels of the parent drug after intravenous administration [2]: no significant levels
Structure (SMILES): N#CCCNc1nonc1-c1nc2ccccc2n1CC(=O)c1ccc(NS(=O)(=O)O)cc1 [Example 15, [4-(2-{2-[4-(2-Cyano-ethylamino)-furazan-3-yl]-benzoimidazol-1-yl}-acetyl)-phenyl]-sulfamic acid]

solubility kinetic at 6 h ([3]; pH 3.0 buffer): > 200 µM | solubility kinetic at 6 h ([3]; pH 5.0 buffer): 55 µM (≈ 25.2 µg/mL) | solubility kinetic at 6 h ([3]; pH 6.5 buffer): 91 µM (≈ 41.7 µg/mL)
Structure (SMILES): C[C@H](N)C(=O)Nc1ccc(C(=O)Cn2c(-c3nonc3NCCC#N)nc3ccccc32)cc1 [Example 2]

solubility kinetic at 6 h ([3]; pH 3.0 buffer): > 200 µM | solubility kinetic at 6 h ([3]; pH 5.0 buffer): 71 µM (≈ 31.6 µg/mL) | solubility kinetic at 6 h ([3]; pH 6.5 buffer): 106 µM (≈ 47.1 µg/mL)
Structure (SMILES): N#CCCNc1nonc1-c1nc2ccccc2n1CC(=O)c1ccc(NC(=O)CN)cc1 [Example 3]

solubility kinetic at 6 h ([3]; pH 3.0 buffer): 189 µM (≈ 94.6 µg/mL) | solubility kinetic at 6 h ([3]; pH 5.0 buffer): 37 µM (≈ 18.5 µg/mL) | solubility kinetic at 6 h ([3]; pH 6.5 buffer): 20 µM (≈ 10 µg/mL)
Structure (SMILES): CC(C)C[C@H](N)C(=O)Nc1ccc(C(=O)Cn2c(-c3nonc3NCCC#N)nc3ccccc32)cc1 [Example 11]
